62 compounds from patent US20150011508A1, “COMPOUNDS AND COMPOSITIONS AS C-KIT KINASE INHIBITORS” (priority 2011, published 2015) can be followed below.

The term IC50 denotes the concentration that inhibits the measured activity by half.

The target in the experiment is T1, c-kit (Homo sapiens, UniProt P10721).
T1 construct: human Mo7e cells which endogenously express c-kit; endogenous in cells; host or cells: human Mo7e cells (SCF-dependent promegakaryocytic leukemia line)
Description: Mo7e cell proliferation assay (SCF dependent proliferation). The experiment is classed as cell-based. As to the method: Compounds of Formula (I) and Formula (II) provided herein were assayed to measure their capacity to inhibit c-kit and PDGFR kinases using the appropriate assay described below: c-Kit inhibition was evaluated using the Mo7e cell proliferation assay, and PDGFR inhibition was evaluated using the Rat A10 cell proliferation assay and the Human TGHA-VSMC cell proliferation assay.
The compounds of Table 1 and Table 2 were tested for inhibition of SCF dependent proliferation using human Mo7e cells which endogenously express c-kit in a 384 well format. […] After 48 hours of incubation at 37° C., cell viability was measured by adding 25 uL of CellTiter Glo (Promega) to the cells and the luminescence was measured by a CLIPR CCD camera (Molecular Devices).
The IC50 value is given as that concentration of the test compound in question that provoke a response halfway between the baseline and maximum responses.

Where [1] appears, read: Table 1, human Mo7e cells stimulated with human recombinant SCF, 48 h, CellTiter Glo, 1% FBS (footnote).
[2] abbreviates: Table 2, human Mo7e cells stimulated with human recombinant SCF, 48 h, CellTiter Glo, 1% FBS (footnote).

T1 sequence (P10721 26-976): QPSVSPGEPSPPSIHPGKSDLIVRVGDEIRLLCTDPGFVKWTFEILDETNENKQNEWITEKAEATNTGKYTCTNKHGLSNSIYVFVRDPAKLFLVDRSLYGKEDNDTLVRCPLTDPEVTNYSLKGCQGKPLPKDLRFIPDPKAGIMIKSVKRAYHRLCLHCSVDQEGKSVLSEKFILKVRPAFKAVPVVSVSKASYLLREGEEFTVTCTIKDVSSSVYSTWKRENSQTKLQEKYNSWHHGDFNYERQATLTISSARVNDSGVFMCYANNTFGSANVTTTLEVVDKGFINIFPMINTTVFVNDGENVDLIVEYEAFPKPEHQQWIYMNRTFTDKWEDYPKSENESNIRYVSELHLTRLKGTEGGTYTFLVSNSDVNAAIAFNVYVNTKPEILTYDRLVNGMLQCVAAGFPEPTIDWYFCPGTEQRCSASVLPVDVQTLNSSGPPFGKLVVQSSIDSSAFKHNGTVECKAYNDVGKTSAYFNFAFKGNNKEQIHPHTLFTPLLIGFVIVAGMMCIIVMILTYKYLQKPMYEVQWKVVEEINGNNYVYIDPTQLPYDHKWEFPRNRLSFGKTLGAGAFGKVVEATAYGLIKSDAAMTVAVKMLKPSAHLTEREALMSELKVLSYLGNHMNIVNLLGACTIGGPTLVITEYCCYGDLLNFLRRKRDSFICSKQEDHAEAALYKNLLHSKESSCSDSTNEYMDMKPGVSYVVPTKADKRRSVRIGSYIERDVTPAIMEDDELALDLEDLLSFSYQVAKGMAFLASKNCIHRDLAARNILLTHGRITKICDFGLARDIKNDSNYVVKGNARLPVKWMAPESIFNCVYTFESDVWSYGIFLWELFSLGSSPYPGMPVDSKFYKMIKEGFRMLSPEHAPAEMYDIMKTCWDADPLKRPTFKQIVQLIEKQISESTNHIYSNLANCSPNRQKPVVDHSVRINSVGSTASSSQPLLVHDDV

As for `COC(C)(CCc1nc(-c2ccc(C)c(NC(=O)c3cnc4cc(C)ccn34)c2)no1)C(F)(F)F` (centres unmarked) [F90], under setting [1], the IC50 was 48 nM. For the compound `Cc1nc(-c2ccc(C)c(NC(=O)c3cnc4ccc(C5CC5)cn34)c2)no1` [F203], the IC50 under setting [2] worked out at 144 nM. Still for that read-out and setting: the result for `Cc1ccc(-c2noc(CCC(C)(C)O)n2)cc1NC(=O)c1cnc2cc(N3CCOC3=O)ccn12` [F191] reads 272 nM. As for `Cc1ccc2ncc(C(=O)Nc3cc(-c4noc(CCC(C)(C)O)n4)ccc3C)n2c1` [F57], the IC50 under setting [1] was 98 nM. Take `Cc1nc(-c2ccc(C)c(NC(=O)c3cnc4ccc(-c5sc(C)nc5C)cn34)c2)no1` [F48]: the IC50 under setting [1] stood at 7 nM.

In the case of `Cc1ccn2c(C(=O)Nc3cc(-c4noc(CC[C@](C)(O)C(F)(F)F)n4)ccc3C)cnc2c1` (single isomer, unassigned) [F75], the IC50 under setting [1] was 64 nM. In the case of `Cc1ccc(-c2noc(CCCN)n2)cc1NC(=O)c1cnc2ccccn12` [F112], the IC50 under setting [2] was found to be 174 nM. Consider `O=C(Nc1cc(-c2noc(CC(O)(C(F)(F)F)C(F)(F)F)n2)ccc1F)c1cnc2ccccn12` [F153], for which the IC50 under setting [2] amounted to 246 nM. Consider `Cc1ccc(-c2noc(CCC(C)(O)C(F)(F)F)n2)cc1NC(=O)c1cnc2cc(F)ccn12` (centres unmarked) [F70], for which the IC50 under setting [1] turned out to be 44 nM. In the case of `Cc1ccc(-c2noc(C[C@@H](C)N)n2)cc1NC(=O)c1cnc2ccccn12` [F219], the IC50 under setting [2] was determined as 1190 nM.

As for `Cc1nc(-c2ccc(C)c(NC(=O)c3cnc4ccc(-c5cnn(CC(C)(C)O)c5)cn34)c2)no1` [F45], the IC50 under setting [1] came out at 24 nM.

Regarding `Cc1ccc(-c2noc(C(C)(C)O)n2)cc1NC(=O)c1cnc2ccccn12` [F173], the IC50 under setting [2] is 281 nM. As for `COCCOCc1nc(-c2cc(NC(=O)c3cnc4ccccn34)c(C)cc2F)no1` [F155], under setting [2], the IC50 was 396 nM. For the compound `Cc1ccc(-c2noc(CCNS(C)(=O)=O)n2)cc1NC(=O)c1cnc2ccccn12` [F114], the IC50 under setting [2] amounted to 409 nM. Turning to `Cc1nc(-c2ccc(C)c(NC(=O)c3cnc4ccc(-c5nc(C)c(C(N)=O)s5)cn34)c2)no1` [F259, 4-methyl-2-(3-((2-methyl-5-(5-methyl-1,2,4-oxadiazol-3-yl)phenyl)carbamoyl)imidazo[1,2-a]pyridin-6-yl)thiazole-5-carboxamide], the IC50 under setting [1] was 89 nM. For the compound `Cc1ccc(-c2noc(CNC(=O)OCC(F)F)n2)cc1NC(=O)c1cnc2ccccn12` [F40, 2,2-difluoroethyl ((3-(3-(imidazo[1,2-a]pyridine-3-carboxamido)-4-methylphenyl)-1,2,4-oxadiazol-5-yl)methyl)carbamate], the IC50 under setting [1] was 71 nM. Take `Cc1nc(-c2ccc(C)c(NC(=O)c3cnc4ccc(-c5c(C)nn(CC(=O)OC(C)(C)C)c5C)cn34)c2)no1` [F234]: the IC50 under setting [2] was found to be 209 nM. For `Cc1ccc(-c2noc(CC(F)(F)F)n2)cc1NC(=O)c1cnc2ccccn12` [F231], the IC50 under setting [2] is > 10000 nM. Turning to `Cc1ccc(Nc2noc(C(C)(C)CO)n2)cc1NC(=O)c1cnc2ccccn12` [F46, N-(5-(5-(1-hydroxy-2-methylpropan-2-yl)-1,2,4-oxadiazol-3-ylamino)-2-methylphenyl)imidazo[1,2-a]pyridine-3-carboxamide], under setting [1], the IC50 worked out at 13 nM. Turning to `Cc1ccc(-c2noc(CC#N)n2)cc1NC(=O)c1cnc2ccccn12` [F227], under setting [2], the IC50 amounted to 2380 nM. Take `Cc1ccc(-c2noc(CC[C@@](C)(O)C(F)(F)F)n2)cc1NC(=O)c1cnc2cc(F)ccn12` [F89]: the IC50 under setting [1] is 41 nM. For `COC(=O)NCc1nc(-c2ccc(C)c(NC(=O)c3cnc4cc(-c5cnn(CCN6CCOCC6)c5)ccn34)c2)no1` [F41], the IC50 under setting [1] was found to be 23 nM. `Cc1ccc(-c2noc(CNC(=O)OC(C)C)n2)cc1NC(=O)c1cnc2ccccn12` [F30]: the IC50 under setting [1] stood at 61 nM.

With `Cc1ccc(-c2noc(CC(C)(C)O)n2)cc1NC(=O)c1cnc2ccccn12` [F138], the IC50 under setting [2] was 233 nM. Regarding `Cc1cc(F)c(-c2noc(CNC(=O)OC(C)(C)C)n2)cc1NC(=O)c1cnc2ccccn12` [F156], under setting [2], the IC50 came out at 198 nM. Turning to `CCN(Cc1nc(-c2ccc(C)c(NC(=O)c3cnc4ccccn34)c2)no1)S(C)(=O)=O` [F22], the IC50 under setting [1] was determined as 89 nM.

With `Cc1ccc(-c2noc(COC(CF)CF)n2)cc1NC(=O)c1cnc2ccccn12` [F95], the IC50 under setting [1] amounted to 28 nM. In the case of `Cc1ccc(-c2nc(CC(=O)N(C)C)no2)cc1NC(=O)c1cnc2ccccn12` [F233], the IC50 (Table 2, values marked *: 20% FBS instead of 1% FBS) was > 6000 nM. Turning to `COC(=O)NCc1nc(-c2ccc(C)c(NC(=O)c3cnc4cc(CCC(C)(C)O)ccn34)c2)no1` [F178], the IC50 under setting [2] is 279 nM. Still for that read-out and setting: the result for `COC(=O)NCc1nc(-c2ccc(C)c(NC(=O)c3cnc4cc(CCC(C)=O)ccn34)c2)no1` [F177] reads 240 nM; that for `Cc1ccn2c(C(=O)Nc3cc(-c4noc(CC[C@](C)(OC(=O)[C@H](N)C(C)C)C(F)(F)F)n4)ccc3C)cnc2c1` [F252], 134 nM; that for `Cc1ccc(-c2noc(C(C)F)n2)cc1NC(=O)c1cnc2ccccn12` (centres unmarked) [F200], 120 nM. The same measure, in the same setting: the result for `COC(=O)NCc1nc(-c2ccc(C)c(NC(=O)c3cnc4cc(CCC(=O)O)ccn34)c2)no1` [F232] reads > 10000 nM.

In the case of `Cc1ccc(-c2noc([C@H](C)NC(=O)OC(C)(C)C)n2)cc1NC(=O)c1cnc2ccccn12` [F13], under setting [1], the IC50 was 93 nM. With `Cc1ccc(-c2noc(CNC(=O)OC(C)(C)C)n2)cc1NC(=O)c1cnc2ccccn12` [F6], the IC50 under setting [1] came out at 8 nM. `Cc1ccc(-c2noc(CCC(C)(C)O)n2)cc1NC(=O)c1cnc2cc(F)ccn12` [F169]: under setting [2], the IC50 amounted to 142 nM. With `Cc1ccc(-c2noc(CNC(=O)CC(C)(C)O)n2)cc1NC(=O)c1cnc2ccccn12` [F223], under setting [2], the IC50 turned out to be 1460 nM. For `CC(C)(C)OC(=O)NCc1nc(-c2ccc(F)c(NC(=O)c3cnc4ccccn34)c2)no1` [F152], the concentration for half-maximal inhibition (IC50) under setting [2] worked out at 207 nM. Take `COCCCc1nc(-c2ccc(C)c(NC(=O)c3cnc4ccccn34)c2)no1` [F3]: the IC50 under setting [1] worked out at 44 nM. With `COc1ccncc1-c1ccc2ncc(C(=O)Nc3cc(-c4noc(C)n4)ccc3C)n2c1` [F102], under setting [1], the IC50 stood at 87 nM. Turning to `COC(=O)NCc1nc(-c2ccc(C)c(NC(=O)c3cnc4ccc(C)cn34)c2)no1` [F204], under setting [2], the IC50 amounted to 157 nM.

For the compound `Cc1ccc(-c2noc(C(O)C(F)(F)F)n2)cc1NC(=O)c1cnc2ccccn12` (centres unmarked) [F162], under setting [2], the IC50 came out at 266 nM. Take `COCCOCc1nc(-c2ccc(F)c(NC(=O)c3cnc4ccc(-c5cnn(CC(C)(C)O)c5)cn34)c2)no1` [F182]: the 50% inhibitory concentration (IC50) under setting [2] worked out at 328 nM. `CCOCCOCc1nc(-c2ccc(C)c(NC(=O)c3cnc4ccccn34)c2)no1` [F32]: under setting [1], the IC50 came out at 72 nM. For `Cc1ccc(-c2noc(C(CO)(CO)NS(C)(=O)=O)n2)cc1NC(=O)c1cnc2ccccn12` [F17, N-(5-(5-(1,3-dihydroxy-2-(methylsulfonamido)propan-2-yl)-1,2,4-oxadiazol-3-yl)-2-methylphenyl)imidazo[1,2-a]pyridine-3-carboxamide], the IC50 under setting [1] stood at 67 nM. With `CCNC(=O)Cc1nc(-c2ccc(C)c(NC(=O)c3cnc4ccccn34)c2)no1` [F209], under setting [2], the IC50 was 318 nM. Take `CC(=O)N[C@@H](C)c1nc(-c2ccc(C)c(NC(=O)c3cnc4ccccn34)c2)no1` [F213]: the IC50 under setting [2] was determined as 795 nM. The same measure, in the same setting: the result for `Cc1ccc(-c2noc(CCC(C)O)n2)cc1NC(=O)c1cnc2ccccn12` (centres unmarked) [F121] reads 104 nM; that for `Cc1nc(-c2ccc(C)c(NC(=O)c3cnc4ccc(-c5c(C)nn(CC(=O)O)c5C)cn34)c2)no1` [F235], 2460 nM.

As for `Cc1ccc(-c2noc(CCC(F)(F)F)n2)cc1NC(=O)c1cnc2ccccn12` [F74], under setting [1], the IC50 came out at 36 nM. With `Cc1nc(-c2ccc(C)c(NC(=O)c3cnc4ccc(-c5cncnc5)cn34)c2)no1` [F206], the IC50 under setting [2] stood at 196 nM. On the same count and under the same terms, the result for `CC(=O)CCc1ccc2ncc(C(=O)Nc3cc(-c4noc(C)n4)ccc3C)n2c1` [F180] reads 356 nM.

Turning to `Cc1ccn2c(C(=O)Nc3cc(-c4noc(NCC(C)C)n4)ccc3C)cnc2c1` [F69], the IC50 under setting [1] is 16 nM.

Take `Cc1ccc(-c2noc([C@H](C)NS(C)(=O)=O)n2)cc1NC(=O)c1cnc2ccccn12` [F136]: the IC50 under setting [2] is 145 nM. On to `CCOC(=O)NCc1nc(-c2ccc(C)c(NC(=O)c3cnc4ccccn34)c2)no1` [F29], for which, under setting [1], the IC50 amounted to 80 nM.

As for `Cc1ccc(-c2noc(COC(C)C(F)(F)F)n2)cc1NC(=O)c1cnc2ccccn12` (centres unmarked) [F96], the IC50 under setting [1] worked out at 11 nM. As for `Cc1nc(-c2ccc(C)c(NC(=O)c3cnc4ccc(-c5c(C)nn(S(C)(=O)=O)c5C)cn34)c2)no1` [F105, 6-(3,5-dimethyl-1-(methylsulfonyl)-1H-pyrazol-4-yl)-N-(2-methyl-5-(5-methyl-1,2,4-oxadiazol-3-yl)phenyl)imidazo[1,2-a]pyridine-3-carboxamide], the IC50 under setting [1] is 38 nM.

On to `Cc1ccc(-c2noc(CC(=O)O)n2)cc1NC(=O)c1cnc2ccccn12` [F146], for which the IC50 under setting [2] was 381 nM.

`Cc1ccc(-c2noc([C@H](C)N)n2)cc1NC(=O)c1cnc2ccccn12` [F125]: under setting [2], the IC50 was 889 nM. Turning to `Cc1ccc2ncc(C(=O)Nc3cc(-c4noc(COCC(F)(F)F)n4)ccc3C)n2c1` [F79], the IC50 under setting [1] came to 13 nM.

In the case of `Cc1ccc(-c2noc(C(C)(C)N)n2)cc1NC(=O)c1cnc2ccccn12` [F218], the IC50 under setting [2] was determined as 1060 nM. On to `Cc1nc(-c2ccc(C)c(NC(=O)c3cnc4ccc(-c5sc(C(=O)NCCN6CCOCC6)nc5C)cn34)c2)no1` [F262, 4-methyl-5-(3-((2-methyl-5-(5-methyl-1,2,4-oxadiazol-3-yl)phenyl)carbamoyl)imidazo[1,2-a]pyridin-6-yl)-N-(2-morpholinoethyl)thiazole-2-carboxamide], for which the IC50 under setting [1] stood at 75 nM.
